Like-named read-outs stand apart in the source and are kept apart here.
How the values were obtained:
CYP3A4(BFC) = CYP3A4(BFC) (Homo sapiens (Human), UniProt P08684); assay: CYP enzyme inhibition, fluorescent substrate BFC
Experimental: (§1) CYP (Cytochrome P450) enzymes are the major drug metabolizing enzymes present in the liver. The inhibition of CYP enzyme activity (IC50) for each of CYP1A2, CYP2C19, CYP2C9, CYP2D6, CYP3A4(BFC) and CYP3A4(BQ) is determined for compounds, where inhibition of metabolism of a known substrate leads to a decrease in the fluorescence of the metabolized product. The fluorescence of the product is monitored as a function of compound concentration.
(§2) Compounds are dissolved in dimethyl sulfoxide to a concentration of 100 mM. These are diluted 1 μL into 82 μL of acetonitrile. […] These are then serially diluted 1:1 (160 μL to 160 μL co-factor mix) for a total of 10 points. A 10 μL aliquot of this final mixture is dispensed into 384 well assay plates and incubated for 10 minutes at 37° C. […] Assay plates are incubated at 37° C. […] The signal versus compound concentration is used to determine the IC50. The enzymes and substrates for this assay are obtained from BD Biosciences.

CYP1A2 = CYP1A2 (Homo sapiens (Human), UniProt P05177); assay: CYP enzyme inhibition, fluorescent substrate (CEC)
CYP1A2, sequence (P05177 whole entry): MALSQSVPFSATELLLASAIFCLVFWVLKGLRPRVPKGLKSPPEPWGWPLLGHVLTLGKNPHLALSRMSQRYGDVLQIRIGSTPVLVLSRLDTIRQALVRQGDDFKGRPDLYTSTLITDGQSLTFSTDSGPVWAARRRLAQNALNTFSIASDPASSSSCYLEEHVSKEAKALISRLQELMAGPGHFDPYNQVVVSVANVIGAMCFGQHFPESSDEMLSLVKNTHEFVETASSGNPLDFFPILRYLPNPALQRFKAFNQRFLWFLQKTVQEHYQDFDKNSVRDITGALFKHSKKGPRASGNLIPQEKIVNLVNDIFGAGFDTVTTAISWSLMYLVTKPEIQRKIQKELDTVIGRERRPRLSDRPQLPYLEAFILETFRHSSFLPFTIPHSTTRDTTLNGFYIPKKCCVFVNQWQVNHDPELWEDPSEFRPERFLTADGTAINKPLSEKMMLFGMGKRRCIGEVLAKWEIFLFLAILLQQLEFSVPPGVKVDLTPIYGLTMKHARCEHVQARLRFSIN
Experimental: as §1
(§3) Compounds are dissolved in dimethyl sulfoxide to a concentration of 100 mM. These are diluted 1 μL into 82 μL of acetonitrile. An 11 μL aliquot of this solution is then added to 204 μL of cofactor mix (1.3% NADPH Regeneration system Solution A, 1.04% NADPH Regeneration system Solution B from BD Biosciences, 5% acetonitrile and 0.05% dimethyl sulfoxide). These are then serially diluted 1:1 (160 μL to 160 μL co-factor mix) for a total of 10 points. A 10 μL aliquot of this final mixture is dispensed into 384 well assay plates and incubated for 10 minutes at 37° C. Enzyme and substrate mix (10 μL; 0.5 pmol CYP1A2/5 μM CEC; 1.0 pmol CYP2C9/75 μM MFC; 0.5 pmol CYP2C19/25 μM CEC; 1.5 pmol CYP2D6/1.5 μM AMMC; 1.0 pmol CYP3A4/50 μM BFC; or 1.0 pmol CYP3A4/40 μM BQ) is added to these assay plates. Assay plates are incubated at 37° C. (CYP1A2-15 min; CYP2C9-45 min; CYP2C19, 2D6 and 3A4-30 min) and read in a Tecan Safire 2 plate reader (CYP1A2, 2C19 and 3A4 409 ex/460 em; CYP2C9 and 2D6 409 ex/530 em). The signal versus compound concentration is used to determine the IC50. The enzymes and substrates for this assay are obtained from BD Biosciences.

CYP2C19 = CYP2C19 (Homo sapiens (Human), UniProt P33261); assay: CYP enzyme inhibition, fluorescent substrate (CEC)
CYP2C19, sequence (P33261 whole entry): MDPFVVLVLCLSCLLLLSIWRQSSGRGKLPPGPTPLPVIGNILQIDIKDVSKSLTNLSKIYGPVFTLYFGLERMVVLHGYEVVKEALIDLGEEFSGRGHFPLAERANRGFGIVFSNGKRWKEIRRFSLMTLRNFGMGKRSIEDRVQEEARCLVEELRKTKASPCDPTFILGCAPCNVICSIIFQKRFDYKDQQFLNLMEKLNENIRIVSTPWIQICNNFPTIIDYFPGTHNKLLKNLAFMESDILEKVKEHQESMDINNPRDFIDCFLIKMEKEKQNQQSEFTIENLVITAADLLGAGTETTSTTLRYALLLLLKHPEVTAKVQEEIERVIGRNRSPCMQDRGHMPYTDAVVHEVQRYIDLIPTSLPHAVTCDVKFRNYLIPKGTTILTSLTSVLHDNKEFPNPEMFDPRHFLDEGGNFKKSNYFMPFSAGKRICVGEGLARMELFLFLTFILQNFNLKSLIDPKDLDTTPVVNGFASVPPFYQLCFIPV
Experimental: as §1, §2

c-Raf-1 = c-Raf-1 (Homo sapiens, UniProt P04049); assay: c-Raf-1 kinase activity biochemical assay (AlphaScreen, biotin-MEK1 phosphorylation)
c-Raf-1, sequence (P04049 whole entry, looked up): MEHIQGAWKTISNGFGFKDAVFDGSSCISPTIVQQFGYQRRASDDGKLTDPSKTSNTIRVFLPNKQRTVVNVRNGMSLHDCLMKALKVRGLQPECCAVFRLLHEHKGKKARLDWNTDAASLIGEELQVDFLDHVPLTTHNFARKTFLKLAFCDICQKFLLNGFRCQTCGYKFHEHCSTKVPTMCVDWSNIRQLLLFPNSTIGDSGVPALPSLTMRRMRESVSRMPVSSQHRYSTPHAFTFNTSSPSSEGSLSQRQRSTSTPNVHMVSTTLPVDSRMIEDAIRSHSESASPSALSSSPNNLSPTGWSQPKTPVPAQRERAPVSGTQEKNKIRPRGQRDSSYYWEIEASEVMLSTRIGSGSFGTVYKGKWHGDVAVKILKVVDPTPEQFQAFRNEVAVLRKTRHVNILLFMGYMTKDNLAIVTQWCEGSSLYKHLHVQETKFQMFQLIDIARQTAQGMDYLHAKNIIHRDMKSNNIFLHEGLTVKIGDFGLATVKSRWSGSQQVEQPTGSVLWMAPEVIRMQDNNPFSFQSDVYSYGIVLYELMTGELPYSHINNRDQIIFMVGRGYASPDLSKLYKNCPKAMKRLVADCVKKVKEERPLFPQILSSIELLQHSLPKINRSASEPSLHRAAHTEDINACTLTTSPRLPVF
Experimental: (§4) Compounds to be tested are diluted in dimethyl sulfoxide to a concentration of 0.1 mM. These are serially diluted 15 μL into 30 μL of dimethyl sulfoxide seven times in 96 well plates for a total of 8 dilution points, and for each dilution point 1 μL is added to a well of an assay plate. […] The reaction is started with addition of 10 μL of 200 μM ATP (i.e. final 100 μM ATP). After incubation of the kinase reaction for 45 minutes at room temperature, 5 μL/well of Stop Solution is added (25 mM Hepes pH 7.5, 100 mM EDTA, 0.01% BSA with donor beads (Streptavidin coated beads, Perkin Elmer), acceptor beads (Protein A coated, Perkin Elmer), and anti phosphor MEK1/2 antibody (CellSignal), each at final concentration 10 μg/mL). The plates are incubated for 3 hours at room temperature and read on Envision reader (Perkin Elmer). […] The signal vs. compound concentration is used to determine the IC50.

CYP2C9 = CYP2C9 (Homo sapiens (Human), UniProt P11712); assay: CYP enzyme inhibition, fluorescent substrate (MFC)
CYP2C9, sequence (P11712 whole entry): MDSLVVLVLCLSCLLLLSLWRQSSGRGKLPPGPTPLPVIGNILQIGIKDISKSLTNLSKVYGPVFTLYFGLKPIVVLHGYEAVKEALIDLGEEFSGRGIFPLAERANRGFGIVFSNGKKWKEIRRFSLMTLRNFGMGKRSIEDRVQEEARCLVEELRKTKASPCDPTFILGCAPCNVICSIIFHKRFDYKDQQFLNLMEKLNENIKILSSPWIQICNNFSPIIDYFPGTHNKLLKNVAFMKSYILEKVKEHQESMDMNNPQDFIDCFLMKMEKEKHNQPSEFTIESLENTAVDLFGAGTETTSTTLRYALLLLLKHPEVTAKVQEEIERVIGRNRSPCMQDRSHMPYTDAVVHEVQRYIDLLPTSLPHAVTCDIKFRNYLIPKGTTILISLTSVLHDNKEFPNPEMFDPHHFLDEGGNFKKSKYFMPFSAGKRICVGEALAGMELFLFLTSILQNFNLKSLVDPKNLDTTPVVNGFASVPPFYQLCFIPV
Experimental: as §1, §2

[1] = Relative solubility by turbidity threshold concentration in aqueous buffers (pH 1.5, 4.5, 6.8, 7.4); format: physicochemical; settings: for turbidity threshold (L, M, H) 1.4: pH 1.4 [sic] (method: SGF pH 1.5); for turbidity threshold (L, M, H) 4.5: pH 4.5 (SIF); for turbidity threshold (L, M, H) 6.8: pH 6.8 (SIF); for turbidity threshold (L, M, H) 7.4: pH 7.4 (HEPES)
Summary of the method: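 Solubility class (high >250 μM, moderate 31.3–250 μM, low <31.3 μM) comes from the concentration where absorbance reaches a 0.01 threshold, averaged across 490/535/650 nm. Samples were compound dilutions from DMSO stock, 1 μL into 99 μL buffer at pH 1.5, 4.5, 6.8 or 7.4.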

B-Raf [2] = assay: B-Raf kinase activity biochemical assay (AlphaScreen, biotin-MEK1 phosphorylation); settings: for Biochemical activity ratio B/V600E: ratio of IC50 B-Raf / B-Raf V600E; for Biochemical activity ratio B/C: ratio of IC50 B-Raf / c-Raf-1
Experimental: as §4

B-Raf [3] = molecular target: B-Raf (Homo sapiens (Human), UniProt P15056); assay: as above; settings: B-Raf
B-Raf (Homo sapiens (Human), UniProt P15056), sequence (P15056 whole entry): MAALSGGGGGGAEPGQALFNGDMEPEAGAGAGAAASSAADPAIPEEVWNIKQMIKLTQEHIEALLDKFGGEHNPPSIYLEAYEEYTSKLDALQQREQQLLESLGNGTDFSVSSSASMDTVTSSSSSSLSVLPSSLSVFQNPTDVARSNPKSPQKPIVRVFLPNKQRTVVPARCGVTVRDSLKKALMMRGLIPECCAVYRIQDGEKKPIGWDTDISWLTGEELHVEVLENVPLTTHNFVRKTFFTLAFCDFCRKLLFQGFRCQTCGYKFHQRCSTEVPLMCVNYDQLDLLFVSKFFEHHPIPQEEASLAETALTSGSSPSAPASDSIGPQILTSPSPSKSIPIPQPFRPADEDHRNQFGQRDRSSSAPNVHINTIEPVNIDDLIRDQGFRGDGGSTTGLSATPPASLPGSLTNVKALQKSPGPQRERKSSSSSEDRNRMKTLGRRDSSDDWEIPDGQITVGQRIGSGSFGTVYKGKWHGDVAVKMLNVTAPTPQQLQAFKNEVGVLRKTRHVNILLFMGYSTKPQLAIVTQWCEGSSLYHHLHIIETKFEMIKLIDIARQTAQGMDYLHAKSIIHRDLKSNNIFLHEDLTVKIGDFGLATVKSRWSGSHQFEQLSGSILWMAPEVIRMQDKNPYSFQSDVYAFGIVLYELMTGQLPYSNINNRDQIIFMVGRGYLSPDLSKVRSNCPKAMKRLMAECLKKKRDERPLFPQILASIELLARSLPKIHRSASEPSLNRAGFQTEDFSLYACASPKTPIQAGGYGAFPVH
Experimental: as §4

CYP2D6 = CYP2D6 (Homo sapiens (Human), UniProt P10635); assay: CYP enzyme inhibition, fluorescent substrate (AMMC); format: in vitro ADME; settings: read-out: Cyp IC50 2D6
CYP2D6, sequence (P10635 whole entry): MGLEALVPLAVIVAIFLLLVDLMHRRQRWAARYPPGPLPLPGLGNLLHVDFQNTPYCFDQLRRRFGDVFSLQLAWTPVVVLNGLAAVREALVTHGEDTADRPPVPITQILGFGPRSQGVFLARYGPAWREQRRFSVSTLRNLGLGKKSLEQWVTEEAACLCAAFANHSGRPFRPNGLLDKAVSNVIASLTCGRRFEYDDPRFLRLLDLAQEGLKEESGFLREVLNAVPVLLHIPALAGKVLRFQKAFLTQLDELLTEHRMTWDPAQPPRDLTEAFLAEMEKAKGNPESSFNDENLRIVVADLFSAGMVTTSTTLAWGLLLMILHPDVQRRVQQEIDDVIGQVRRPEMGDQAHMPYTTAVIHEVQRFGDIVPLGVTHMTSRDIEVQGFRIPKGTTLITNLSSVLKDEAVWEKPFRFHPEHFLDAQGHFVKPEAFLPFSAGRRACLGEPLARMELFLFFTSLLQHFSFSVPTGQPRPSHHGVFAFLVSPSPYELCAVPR
Experimental: as §1, §3

B-Raf V600E = B-Raf V600E (Homo sapiens (Human), UniProt P15056, V600E); assay: B-Raf V600E kinase activity biochemical assay (AlphaScreen, biotin-MEK1 phosphorylation); settings: for IC50: B-Raf V600E; for Biochemical activity ratio V600E/C: ratio of IC50 B-Raf V600E / c-Raf-1
B-Raf V600E, sequence (P15056 whole entry V600E): as the sequence (P15056 whole entry) above, with V600E counted along it
Experimental: as §4

[4] = read-out: Cyp IC50 3A4(BFC), CYP3A4, substrate BFC
[5] = read-out: Cyp IC50 2C19, CYP2C19, substrate CEC
[6] = read-out: Cyp IC50 2C9, CYP2C9, substrate MFC
[7] = read-out: Cyp IC50 1A2, CYP1A2, substrate CEC

CYP3A4(BFC), sequence (P08684 whole entry): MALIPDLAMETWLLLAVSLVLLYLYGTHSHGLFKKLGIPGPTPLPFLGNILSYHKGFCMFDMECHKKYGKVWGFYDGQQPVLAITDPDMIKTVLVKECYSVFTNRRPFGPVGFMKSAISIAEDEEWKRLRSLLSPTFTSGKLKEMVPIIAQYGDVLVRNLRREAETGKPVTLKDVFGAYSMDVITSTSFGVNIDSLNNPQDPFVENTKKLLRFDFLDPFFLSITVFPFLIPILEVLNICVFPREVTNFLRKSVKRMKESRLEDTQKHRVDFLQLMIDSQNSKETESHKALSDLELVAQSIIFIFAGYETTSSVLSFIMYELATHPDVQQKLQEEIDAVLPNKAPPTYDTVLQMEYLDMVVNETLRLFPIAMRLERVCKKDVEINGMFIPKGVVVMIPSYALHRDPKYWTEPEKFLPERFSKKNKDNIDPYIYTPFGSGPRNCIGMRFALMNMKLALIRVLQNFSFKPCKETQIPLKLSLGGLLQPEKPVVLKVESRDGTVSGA

SMILES	IC50 (CYP3A4(BFC); [4]) [µM]	IC50 (CYP1A2; human, 15 min) [µM]	IC50 (CYP2C19; [5]) [µM]	IC50 (c-Raf-1) [µM]	IC50 (CYP2C9) [µM]	turbidity threshold (L, M, H) 1.4 [1]	turbidity threshold (L, M, H) 4.5 [1]	turbidity threshold (L, M, H) 6.8 [1]	turbidity threshold (L, M, H) 7.4 [1]	Biochemical activity ratio B/V600E (B-Raf [2])	Biochemical activity ratio B/C (B-Raf [2])	IC50 (B-Raf [3]) [µM]	IC50 (CYP2D6) [µM]	IC50 (B-Raf V600E) [µM]	Biochemical activity ratio V600E/C (B-Raf V600E)	IC50 (CYP3A4(BFC)) [µM]	IC50 (CYP2C9; [6]) [µM]	IC50 (CYP1A2; [7]) [µM]	IC50 (CYP2C19) [µM]
CC(C)COc1ncnc2[nH]cc(C(=O)c3c(F)ccc(NS(=O)(=O)c4ccc(C(F)(F)F)cc4)c3F)c12 [P-1028, N-[2,4-Difluoro-3-(4-isobutoxy-7H-pyrrolo[2,3-d]pyrimidine-5-carbonyl)-phenyl]-4-trifluoromethyl-benzenesulfonamide]	> 10	> 10	> 10	< 0.1	5 to 10	M (moderate solubility if the threshold concentration is 31.3 μM to 250 μM)	L (low solubility if the threshold concentration is <31.3 μM)	L (low solubility if the threshold concentration is <31.3 μM)	M (moderate solubility if the threshold concentration is 31.3 μM to 250 μM)	0.1-10	>10	> 0.1	> 10	> 0.1	>10	–	–	–	–
COc1ncnc2[nH]cc(C(=O)c3c(F)ccc(NS(=O)(=O)c4cc(C)cc(C)c4)c3F)c12 [P-1025, N-[2,4-Difluoro-3-(4-methoxy-7H-pyrrolo[2,3-d]pyrimidine-5-carbonyl)-phenyl]-3,5-dimethyl-benzenesulfonamide]	–	> 10	> 10	< 0.1	–	M (moderate solubility if the threshold concentration is 31.3 μM to 250 μM)	L (low solubility if the threshold concentration is <31.3 μM)	M (moderate solubility if the threshold concentration is 31.3 μM to 250 μM)	–	0.1-10	>10	> 0.1	> 10	> 0.1	0.1-10	5 to 10	> 10	–	–
Cc1cc(C)cc(S(=O)(=O)Nc2ccc(F)c(C(=O)c3c[nH]c4ncnc(C)c34)c2F)c1 [P-1027, N-[2,4-Difluoro-3-(4-methyl-7H-pyrrolo[2,3-d]pyrimidine-5-carbonyl)-phenyl]-3,5-dimethyl-benzenesulfonamide]	> 10	> 10	> 10	< 0.1	–	–	L (low solubility if the threshold concentration is <31.3 μM)	M (moderate solubility if the threshold concentration is 31.3 μM to 250 μM)	–	0.1-10	>10	> 0.1	> 10	> 0.1	0.1-10	–	> 10	–	–
Nc1ncnc2[nH]cc(C(=O)c3c(F)ccc(NS(=O)(=O)c4ccc(C(F)(F)F)cc4)c3F)c12 [P-1031, N-[3-(4-Amino-7H-pyrrolo[2,3-d]pyrimidine-5-carbonyl)-2,4-difluoro-phenyl]-4-trifluoromethyl-benzenesulfonamide]	> 10	–	> 10	< 0.1	–	M (moderate solubility if the threshold concentration is 31.3 μM to 250 μM)	M (moderate solubility if the threshold concentration is 31.3 μM to 250 μM)	M (moderate solubility if the threshold concentration is 31.3 μM to 250 μM)	M (moderate solubility if the threshold concentration is 31.3 μM to 250 μM)	0.1-10	>10	> 0.1	> 10	> 0.1	>10	–	> 10	> 10	–
CCCNc1ncnc2[nH]cc(C(=O)c3c(F)ccc(NS(=O)(=O)c4ccc(C(F)(F)F)cc4)c3F)c12 [P-1032, N-[2,4-Difluoro-3-(4-propylamino-7H-pyrrolo[2,3-d]pyrimidine-5-carbonyl)-phenyl]-4-trifluoromethyl-benzenesulfonamide]	> 10	–	–	< 0.1	–	L (low solubility if the threshold concentration is <31.3 μM)	L (low solubility if the threshold concentration is <31.3 μM)	–	–	0.1-10	>10	< 0.1	> 10	< 0.1	>10	–	> 10	> 10	5 to 10
O=C(c1c(F)ccc(NS(=O)(=O)c2ccc(C(F)(F)F)cc2)c1F)c1c[nH]c2ncnc(Cl)c12 [P-1016, N-[3-(4-Chloro-7H-pyrrolo[2,3-d]pyrimidine-5-carbonyl)-2,4-difluoro-phenyl]-4-trifluoromethyl-benzenesulfonamide]	> 10	–	> 10	< 0.1	–	L (low solubility if the threshold concentration is <31.3 μM)	–	L (low solubility if the threshold concentration is <31.3 μM)	H (high solubility if the threshold concentration is >250 μm)	0.1-10	>10	> 0.1	> 10	> 0.1	>10	–	> 10	> 10	–

Source: patent publication US9617267B2, “Compounds and methods for kinase modulation, and indications therefor” (Plexxikon Inc., priority 2009, dated 2017)
